According to PubChem BioAssay (NCI):
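These data come from cells grown in 96-well plates and exposed to compound for 48 hours at five concentrations. TGI marks complete inhibition of growth.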

Key:
Test in all cases: NCI tumour cell line growth inhibition, 48 h
786-0 renal = system: 786-0 renal
A498 renal = system: A498 renal
A549 NSCLC = system: A549 NSCLC
ACHN renal = system: ACHN renal
BT-549 breast = system: BT-549 breast
CAKI-1 renal = system: CAKI-1 renal
CCRF-CEM leukemia = system: CCRF-CEM leukemia
COLO 205 colon = system: COLO 205 colon
DU-145 prostate = system: DU-145 prostate
EKVX NSCLC = system: EKVX NSCLC
HCC-2998 colon = system: HCC-2998 colon
HCT-116 colon = system: HCT-116 colon
HCT-15 colon = system: HCT-15 colon
HL-60(TB) leukemia = system: HL-60(TB) leukemia
HOP-62 NSCLC = system: HOP-62 NSCLC
HOP-92 NSCLC = system: HOP-92 NSCLC
HT29 colon = system: HT29 colon
IGROV1 ovarian = system: IGROV1 ovarian
K-562 leukemia = system: K-562 leukemia
KM12 colon = system: KM12 colon
LOX IMVI melanoma = system: LOX IMVI melanoma
M14 melanoma = system: M14 melanoma
MALME-3M melanoma = system: MALME-3M melanoma
MCF7 breast = system: MCF7 breast
MDA-MB-231 breast = system: MDA-MB-231 breast
MDA-MB-435 = system: MDA-MB-435
MDA-N = system: MDA-N
MOLT-4 leukemia = system: MOLT-4 leukemia
NCI-H226 lung = system: NCI-H226 lung
NCI-H23 lung = system: NCI-H23 lung
NCI-H460 lung = system: NCI-H460 lung
NCI-H522 lung = system: NCI-H522 lung
NCI/ADR-RES ovarian = system: NCI/ADR-RES ovarian
OVCAR-3 ovarian = system: OVCAR-3 ovarian
OVCAR-4 ovarian = system: OVCAR-4 ovarian
OVCAR-5 ovarian = system: OVCAR-5 ovarian
OVCAR-8 ovarian = system: OVCAR-8 ovarian
PC-3 prostate = system: PC-3 prostate
SF-268 CNS = system: SF-268 CNS
SF-295 CNS = system: SF-295 CNS
SF-539 CNS = system: SF-539 CNS
SK-MEL-2 melanoma = system: SK-MEL-2 melanoma
SK-MEL-28 melanoma = system: SK-MEL-28 melanoma
SK-MEL-5 melanoma = system: SK-MEL-5 melanoma
SK-OV-3 ovarian = system: SK-OV-3 ovarian
SN12C renal = system: SN12C renal
SNB-19 CNS = system: SNB-19 CNS
SNB-75 CNS = system: SNB-75 CNS
SW-620 colon = system: SW-620 colon
TK-10 renal = system: TK-10 renal
U251 CNS = system: U251 CNS
UACC-257 melanoma = system: UACC-257 melanoma
UO-31 renal = system: UO-31 renal
HS 578T breast = system: HS 578T breast
RXF 393 renal = system: RXF 393 renal
SR leukemia = system: SR leukemia
UACC-62 melanoma = system: UACC-62 melanoma
RPMI-8226 leukemia = system: RPMI-8226 leukemia
T-47D breast = system: T-47D breast

COC(=O)C1(C(=O)OC)CC2=C(S(=O)(=O)c3ccccc3)C[C@@H](C#N)[C@H]2C1
TGI (786-0 renal): > 100 µM
TGI (A498 renal): > 100 µM
TGI (A549 NSCLC): > 100 µM
TGI (ACHN renal): > 100 µM
TGI (BT-549 breast): > 100 µM
TGI (CAKI-1 renal): > 100 µM
TGI (CCRF-CEM leukemia): > 100 µM
TGI (COLO 205 colon): > 100 µM
TGI (DU-145 prostate): > 100 µM
TGI (EKVX NSCLC): > 100 µM
TGI (HCC-2998 colon): 31.2 µM
TGI (HCT-116 colon): > 100 µM
TGI (HCT-15 colon): > 100 µM
TGI (HL-60(TB) leukemia): > 100 µM
TGI (HOP-62 NSCLC): > 100 µM
TGI (HOP-92 NSCLC): > 100 µM
TGI (HT29 colon): > 100 µM
TGI (IGROV1 ovarian): > 100 µM
TGI (K-562 leukemia): > 100 µM
TGI (KM12 colon): > 100 µM
TGI (LOX IMVI melanoma): > 100 µM
TGI (M14 melanoma): > 100 µM
TGI (MALME-3M melanoma): > 100 µM
TGI (MCF7 breast): > 100 µM
TGI (MDA-MB-231 breast): > 100 µM
TGI (MDA-MB-435): > 100 µM
TGI (MDA-N): > 100 µM
TGI (MOLT-4 leukemia): > 100 µM
TGI (NCI-H226 lung): > 100 µM
TGI (NCI-H23 lung): > 100 µM
TGI (NCI-H460 lung): > 100 µM
TGI (NCI-H522 lung): > 100 µM
TGI (NCI/ADR-RES ovarian): > 100 µM
TGI (OVCAR-3 ovarian): 75.6 µM
TGI (OVCAR-4 ovarian): > 100 µM
TGI (OVCAR-5 ovarian): > 100 µM
TGI (OVCAR-8 ovarian): > 100 µM
TGI (PC-3 prostate): > 100 µM
TGI (SF-268 CNS): > 100 µM
TGI (SF-295 CNS): > 100 µM
TGI (SF-539 CNS): > 100 µM
TGI (SK-MEL-2 melanoma): > 100 µM
TGI (SK-MEL-28 melanoma): > 100 µM
TGI (SK-MEL-5 melanoma): > 100 µM
TGI (SK-OV-3 ovarian): > 100 µM
TGI (SN12C renal): > 100 µM
TGI (SNB-19 CNS): > 100 µM
TGI (SNB-75 CNS): > 100 µM
TGI (SW-620 colon): > 100 µM
TGI (TK-10 renal): > 100 µM
TGI (U251 CNS): > 100 µM
TGI (UACC-257 melanoma): > 100 µM
TGI (UO-31 renal): > 100 µM

CSc1nc(Cl)c2c(n1)Sc1ncnn1C2O (stereo not drawn)
TGI (786-0 renal): 9.08 µM
TGI (A498 renal): 38.1 µM
TGI (A549 NSCLC): 36.9 µM
TGI (ACHN renal): 15.4 µM
TGI (BT-549 breast): 28.8 µM
TGI (CAKI-1 renal): 25.4 µM
TGI (CCRF-CEM leukemia): 10.9 µM
TGI (COLO 205 colon): 62.7 µM
TGI (DU-145 prostate): 19.2 µM
TGI (EKVX NSCLC): 36.3 µM
TGI (HCC-2998 colon): 27.4 µM
TGI (HCT-116 colon): 17.1 µM
TGI (HCT-15 colon): 18.4 µM
TGI (HL-60(TB) leukemia): 14.8 µM
TGI (HOP-62 NSCLC): 41.1 µM
TGI (HOP-92 NSCLC): 30.3 µM
TGI (HS 578T breast): 23.2 µM
TGI (HT29 colon): 28.4 µM
TGI (IGROV1 ovarian): 34.2 µM
TGI (K-562 leukemia): 30.6 µM
TGI (LOX IMVI melanoma): 21.1 µM
TGI (M14 melanoma): 29 µM
TGI (MALME-3M melanoma): 8.22 µM
TGI (MCF7 breast): 16 µM
TGI (MDA-MB-231 breast): 31.6 µM
TGI (MDA-MB-435): 15.9 µM
TGI (MDA-N): 20.5 µM
TGI (MOLT-4 leukemia): 27.1 µM
TGI (NCI-H23 lung): 30.9 µM
TGI (NCI-H460 lung): 46.4 µM
TGI (NCI-H522 lung): 4.23 µM
TGI (NCI/ADR-RES ovarian): 54.6 µM
TGI (OVCAR-3 ovarian): 20.1 µM
TGI (OVCAR-4 ovarian): 29.6 µM
TGI (OVCAR-5 ovarian): 32.3 µM
TGI (OVCAR-8 ovarian): 15.7 µM
TGI (PC-3 prostate): 27.7 µM
TGI (RXF 393 renal): 5.63 µM
TGI (SF-268 CNS): 26.7 µM
TGI (SF-539 CNS): 15.5 µM
TGI (SK-MEL-2 melanoma): 41.8 µM
TGI (SK-MEL-28 melanoma): > 100 µM
TGI (SK-OV-3 ovarian): 42.2 µM
TGI (SN12C renal): 24 µM
TGI (SNB-19 CNS): 45.2 µM
TGI (SR leukemia): > 100 µM
TGI (SW-620 colon): 36.3 µM
TGI (TK-10 renal): 31.2 µM
TGI (U251 CNS): 33.9 µM
TGI (UACC-257 melanoma): 45.7 µM
TGI (UACC-62 melanoma): 26.3 µM
TGI (UO-31 renal): 5.24 µM

N#Cc1ccc(/C=C2\Cc3ccccc3C2=O)cc1
TGI (786-0 renal): > 100 µM
TGI (A549 NSCLC): > 100 µM
TGI (ACHN renal): > 100 µM
TGI (BT-549 breast): > 100 µM
TGI (CAKI-1 renal): > 100 µM
TGI (CCRF-CEM leukemia): > 100 µM
TGI (COLO 205 colon): > 100 µM
TGI (DU-145 prostate): > 100 µM
TGI (EKVX NSCLC): > 100 µM
TGI (HCC-2998 colon): > 100 µM
TGI (HCT-116 colon): > 100 µM
TGI (HCT-15 colon): > 100 µM
TGI (HL-60(TB) leukemia): > 100 µM
TGI (HOP-62 NSCLC): > 100 µM
TGI (HS 578T breast): > 100 µM
TGI (HT29 colon): > 100 µM
TGI (K-562 leukemia): > 100 µM
TGI (KM12 colon): > 100 µM
TGI (M14 melanoma): > 100 µM
TGI (MCF7 breast): > 100 µM
TGI (MDA-MB-231 breast): > 100 µM
TGI (MDA-MB-435): > 100 µM
TGI (MDA-N): > 100 µM
TGI (MOLT-4 leukemia): > 100 µM
TGI (NCI-H226 lung): > 100 µM
TGI (NCI-H23 lung): > 100 µM
TGI (NCI-H460 lung): > 100 µM
TGI (NCI-H522 lung): > 100 µM
TGI (OVCAR-3 ovarian): > 100 µM
TGI (OVCAR-4 ovarian): > 100 µM
TGI (OVCAR-8 ovarian): > 100 µM
TGI (PC-3 prostate): > 100 µM
TGI (RPMI-8226 leukemia): > 100 µM
TGI (RXF 393 renal): > 100 µM
TGI (SF-268 CNS): > 100 µM
TGI (SF-295 CNS): > 100 µM
TGI (SF-539 CNS): > 100 µM
TGI (SK-MEL-28 melanoma): > 100 µM
TGI (SK-MEL-5 melanoma): > 100 µM
TGI (SK-OV-3 ovarian): > 100 µM
TGI (SN12C renal): > 100 µM
TGI (SNB-19 CNS): > 100 µM
TGI (SNB-75 CNS): > 100 µM
TGI (SR leukemia): > 100 µM
TGI (SW-620 colon): > 100 µM
TGI (T-47D breast): > 100 µM
TGI (TK-10 renal): > 100 µM
TGI (UACC-257 melanoma): > 100 µM
TGI (UACC-62 melanoma): > 100 µM
TGI (UO-31 renal): > 100 µM

CCC(c1ccc(N(C)C)cc1)C1NC(=S)NC1=O (stereo not drawn)
TGI (786-0 renal): > 100 µM
TGI (A498 renal): > 100 µM
TGI (A549 NSCLC): > 100 µM
TGI (ACHN renal): > 100 µM
TGI (CAKI-1 renal): > 100 µM
TGI (CCRF-CEM leukemia): > 100 µM
TGI (COLO 205 colon): > 100 µM
TGI (DU-145 prostate): > 100 µM
TGI (EKVX NSCLC): > 100 µM
TGI (HCC-2998 colon): > 100 µM
TGI (HCT-116 colon): > 100 µM
TGI (HCT-15 colon): > 100 µM
TGI (HL-60(TB) leukemia): 46.3 µM
TGI (HOP-92 NSCLC): > 100 µM
TGI (HS 578T breast): > 100 µM
TGI (HT29 colon): > 100 µM
TGI (IGROV1 ovarian): > 100 µM
TGI (K-562 leukemia): 59.6 µM
TGI (KM12 colon): > 100 µM
TGI (LOX IMVI melanoma): > 100 µM
TGI (M14 melanoma): > 100 µM
TGI (MALME-3M melanoma): > 100 µM
TGI (MCF7 breast): > 100 µM
TGI (MDA-MB-231 breast): > 100 µM
TGI (MDA-MB-435): > 100 µM
TGI (MDA-N): > 100 µM
TGI (MOLT-4 leukemia): > 100 µM
TGI (NCI-H226 lung): > 100 µM
TGI (NCI-H23 lung): > 100 µM
TGI (NCI-H460 lung): > 100 µM
TGI (NCI-H522 lung): > 100 µM
TGI (NCI/ADR-RES ovarian): > 100 µM
TGI (OVCAR-4 ovarian): > 100 µM
TGI (OVCAR-5 ovarian): > 100 µM
TGI (OVCAR-8 ovarian): > 100 µM
TGI (RPMI-8226 leukemia): > 100 µM
TGI (RXF 393 renal): > 100 µM
TGI (SF-268 CNS): > 100 µM
TGI (SF-295 CNS): > 100 µM
TGI (SF-539 CNS): > 100 µM
TGI (SK-MEL-28 melanoma): > 100 µM
TGI (SK-MEL-5 melanoma): > 100 µM
TGI (SK-OV-3 ovarian): > 100 µM
TGI (SN12C renal): > 100 µM
TGI (SNB-19 CNS): > 100 µM
TGI (SNB-75 CNS): > 100 µM
TGI (SR leukemia): > 100 µM
TGI (SW-620 colon): > 100 µM
TGI (T-47D breast): > 100 µM
TGI (TK-10 renal): > 100 µM
TGI (U251 CNS): > 100 µM
TGI (UACC-257 melanoma): > 100 µM
TGI (UO-31 renal): > 100 µM
